Data: US20140039047A1, “METHODS FOR REGULATING SIRTUIN GENE EXPRESSION” (priority 2011, published 2014)

How the values were obtained:
Test in all cases: Quantitative PCR of sirtuin gene expression in canine adipocytes treated with Equol
Assay type in all cases: cell-based
Conditions in all cases: 24 hours, terminally differentiated canine adipocytes, normalized to cyclophilin A (PPIA), n=3
SIRT1 = system: SIRT1
Experimental: (§1) Treatment: Terminally differentiated canine adipocytes were exposed to 200, 25, and 0 uM Equol for 24 hours. Cells were collected for RNA isolation.
(§2) RNA Isolation: Treatment cell samples were vortexed and homogenized using a Quiashredder (Qiagen, Valencia, Calif.) column according to manufacturer's directions. The homogenized lysate was collected and 1 equal volume of 64% ethanol was added to it. This mixture was then applied to an RNAqueous™ filter cartridge, (Ambion Inc., Austin, Tex.) 700 uL at a time, and centrifuged for one minute at 10,000 rpm. The cartridge was washed using 700 uL wash solution #1 and 500 uL wash solution #⅔ with centrifugation at 10,000 rpm for one minute for each wash. The filter cartridge was dried by centrifugation (10,000 rpm) for one minute. RNA was eluted three times by centrifugation (as above) using 30 uL aliquots of 70-80° C. elution solution. The resulting RNA was DNAse-treated and quantitated in a Beckman DU 640B spectrophotometer (Beckman Coulter, Inc., Brea, Calif.) at 260 nm. Additionally, quantity and quality were assessed using a bioanalyzer (Agilent, Santa Clara, Calif.) according to manufacturer's directions.
(§3) Quantitative PCR: All samples were run singularly against each primer/probe set to determine what standard curve(s) should be used. Standard curves were generated using serial dilutions of RNA from experimental samples with the lowest CT (cycle threshold) for a given target. 1-2 samples were re-reverse transcribed and a 1:5 serial dilution were used as the standard curve for a given target. Targets run included sirtuin −1, −2, −3 and −6. Values were normalized to cyclophilin A (PPIA) levels as determined by quantitative PCR. Inductions were calculated from each of the lowest sample's normalized value. Each set was run with n=3.

SIRT2 = system: SIRT2
Experimental: as §1, §2, §3

SIRT3 = system: SIRT3
Experimental: as §1, §2, §3

SIRT6 = system: SIRT6
Experimental: as §1, §2, §3

Oc1ccc([C@H]2COc3cc(O)ccc3C2)cc1 [Equol]
Expression of SIRT1 gene (relative expression) (SIRT1; 25 uM Equol): 1.17 | Expression of SIRT1 gene (relative expression) (SIRT1; 200 uM Equol): 1.80 | Expression of SIRT2 gene (relative expression) (SIRT2; 25 uM Equol): 1.22 | Expression of SIRT2 gene (relative expression) (SIRT2; 200 uM Equol): 2.37 | Expression of SIRT3 gene (relative expression) (SIRT3; 25 uM Equol): 10.86 | Expression of SIRT3 gene (relative expression) (SIRT3; 200 uM Equol): 17.21 | Expression of SIRT6 gene (relative expression) (SIRT6; 25 uM Equol): 1.10 | Expression of SIRT6 gene (relative expression) (SIRT6; 200 uM Equol): 1.23
